# Measurements: ChEMBL document CHEMBL3734690, “Design, Synthesis, and Biological Evaluation of Indole Biphenylcarboxylic Acids as PPARγ Antagonists” (ACS Med Chem Lett, 2015)
# Assays:
# in vivo [1] = details: mouse, plasma, po, 20 mg/kg
# Description: Plasma concentration in mouse at 20 mg/kg, po after 2 hrs
# in vivo [2] = details: mouse, plasma, po, 20 mg/kg; remark: listed apart in the source
# Description: Plasma concentration in mouse at 20 mg/kg, po after 6 hrs
concentration at 2 h (in vivo [1]) [nM],concentration at 6 h (in vivo [2]) [nM],Compound
200,10,Cc1c(C)n(Cc2ccc(-c3ccccc3-c3n[nH]c(=O)o3)cc2)c2ccc(C(=O)N[C@@H](C)c3cccc(C(C)C)c3)cc12
19000,2400,Cc1c(C)n(Cc2ccc(-c3ccccc3C(=O)O)cc2)c2ccc(C(=O)N[C@@H](C)c3cccc(C4CC4)c3)cc12
400,30,Cc1c(C)n(Cc2ccc(-c3ccccc3C(=O)NO)cc2)c2ccc(C(=O)N[C@@H](C)c3cccc(C(C)C)c3)cc12
2500,100,Cc1c(C)n(Cc2ccc(-c3ccccc3C(N)=O)cc2)c2ccc(C(=O)N[C@@H](C)c3cccc(C(C)C)c3)cc12
5600,1900,Cc1c(C)n(Cc2ccc(-c3ccccc3C(=O)O)cc2)c2ccc(C(=O)N[C@@H](C)c3ccc(C(C)(C)C)cc3)cc12
